Test system: linear double-stranded 32P-end-labelled TyrT DNA fragment
Assay: DNA interstrand cross-linking assay, denaturing polyacrylamide gel
Format: biochemical
Details: overnight incubation at 37° C., 10 concentrations tested, assay repeated twice
Description: The ability of 13 to cross-link DNA was determined using an assay involving a linear double-stranded TyrT fragment (FIG. 8).
Following denaturation conditions (treatment with formamide and heating at 65° C. for 5 min) the DNA strands were completely separated (see controls C2 and C4, FIG. 9). The presence of an interstrand cross-link holds the denatured strands in close proximity, and cross-linked adducts therefore run as double-stranded DNA on polyacrylamide gel.
The preparation of the TyrT DNA fragment (FIG. 8) and HexARev DNA fragment (FIG. 15) have been previously described (34). Briefly, the sequence which had been cloned into the BamHI site of pUC18 was obtained by cutting with HindIII and EcoRI. Radiolabelled DNA fragments were prepared by filling in the 3′-end of the HindIII site with [α-^32P]dATP using Klenow DNA polymerase (exo-).
The radiolabelled DNA fragment was separated from the remainder of the plasmid DNA on a 6% non-denaturing polyacrylamide gel. The gel (20 cm long, 0.3 mm thick) was run at 400 V in 1×TBE running buffer for about 1-2 h, until the bromophenol blue had run most of the way down the gel. The glass plates were separated and the position of the labelled DNA fragment was established by short (1 min) exposure to an X-ray film. […]

## COc1cc2c(cc1OCCCC(=O)N1C[C@@H](CCl)c3c1cc(O)c1ccccc31)N=C[C@@H]1CCCCN1C2=O [Compound 13, (S)-3-(4-((S)-1-(Chloromethyl)-5-hydroxy-1,2-dihydro-3H-benzo[e]indol-3-yl)-4-oxobutoxy)-2-methoxy-7,8,9,10-tetrahydrobenzo[e]-pyrido[1,2-a][1,4]diazepin-12(6aH)-one]
  lowest concentration at which DNA cross-links are visible: 10 nM
